The NIST ThermoML archive (doi:10.1016/j.fluid.2015.10.027)

Assay: heat capacity at constant pressure per volume; xn = mol fraction of the nth substance listed
Details: DSC

CC1CCCC(C)N1 (stereo not drawn) [2,6-dimethylpiperidine] + O
Liquid mixture 1, x1 = 0.055
Details	heat capacity [J/K/m3]
264 K	4559000
264.47 K	4560000
264.95 K	4546000
265.42 K	4529000
265.9 K	4518000
266.37 K	4505000
266.84 K	4492000
267.32 K	4480000
267.79 K	4471000
268.26 K	4448000
268.74 K	4442000
269.21 K	4429000
269.68 K	4420000
270.16 K	4409000
270.63 K	4398000
271.1 K	4391000
271.58 K	4375000
272.05 K	4367000
272.52 K	4356000
273 K	4342000
273.47 K	4341000
273.94 K	4336000
274.42 K	4322000
274.89 K	4313000
275.36 K	4305000
275.84 K	4293000
276.31 K	4289000
276.78 K	4278000
277.25 K	4274000
277.73 K	4266000
278.2 K	4260000
278.68 K	4252000
279.15 K	4250000
279.62 K	4239000
280.1 K	4237000
280.57 K	4227000
281.04 K	4227000
281.51 K	4221000
281.99 K	4216000
282.46 K	4215000
282.94 K	4208000
283.41 K	4206000
283.88 K	4199000
284.36 K	4195000
284.83 K	4191000
285.3 K	4189000
285.77 K	4182000
286.25 K	4178000
286.72 K	4177000
287.19 K	4174000
287.67 K	4174000
288.14 K	4172000
288.61 K	4170000
289.09 K	4171000
289.56 K	4167000
290.03 K	4166000
290.51 K	4165000
290.98 K	4166000
291.45 K	4165000
291.93 K	4166000
292.6 K	4164000
292.81 K	4147000
293.02 K	4141000
293.23 K	4164000
293.45 K	4134000
293.66 K	4144000
293.87 K	4164000
294.08 K	4166000
294.3 K	4164000
294.51 K	4144000
294.72 K	4183000
294.93 K	4155000
295.14 K	4142000
295.36 K	4144000
295.57 K	4153000
295.78 K	4178000
295.99 K	4155000
296.2 K	4175000
296.42 K	4213000
296.63 K	4189000
296.84 K	4188000
297.06 K	4228000
297.27 K	4210000
297.48 K	4217000
297.69 K	4232000
297.9 K	4249000
298.12 K	4247000
298.33 K	4277000
298.54 K	4280000
298.75 K	4295000
298.96 K	4312000
299.18 K	4375000
299.39 K	4534000

102.6 kPa, Liquid, x1 = 0.055
Details	heat capacity [J/K/m3]
299.6 K	5314000
299.81 K	5077000
300.03 K	5010000
300.24 K	4873000
300.45 K	4815000
300.66 K	4801000
300.88 K	4772000
301.09 K	4785000
301.3 K	4742000
301.51 K	4632000
301.73 K	4641000
301.94 K	4672000
302.15 K	4625000
302.36 K	4675000
302.57 K	4597000
302.79 K	4600000
303 K	4544000
303.21 K	4578000
303.42 K	4592000
303.64 K	4555000
303.85 K	4564000
304.06 K	4532000
304.27 K	4520000
304.49 K	4530000
304.7 K	4519000
304.91 K	4468000
305.12 K	4514000
305.33 K	4463000
305.55 K	4423000
305.76 K	4443000

CC1CCCC(C)N1 (stereo not drawn) [2,6-dimethylpiperidine] + [2H]O[2H]
Liquid mixture 1, x1 = 0.054
Details	heat capacity [J/K/m3]
270.36 K	4851000
270.67 K	4851000
270.98 K	4850000
271.3 K	4843000
271.61 K	4841000
271.92 K	4831000
272.23 K	4822000
272.54 K	4813000
272.85 K	4803000
273.16 K	4797000
273.47 K	4793000
273.78 K	4785000
274.1 K	4778000
274.41 K	4775000
274.72 K	4768000
275.03 K	4764000
275.34 K	4752000
275.65 K	4755000
275.96 K	4749000
276.27 K	4742000
276.58 K	4732000
276.89 K	4728000
277.21 K	4720000
277.52 K	4717000
277.83 K	4706000
278.14 K	4700000
278.45 K	4697000
278.76 K	4694000
279.07 K	4693000
279.38 K	4689000
279.69 K	4685000
280 K	4677000
280.32 K	4675000
280.63 K	4668000
280.94 K	4667000
281.25 K	4661000
281.56 K	4654000
281.87 K	4654000
282.18 K	4653000
282.49 K	4642000
282.8 K	4640000
283.12 K	4641000
283.43 K	4645000
283.74 K	4645000
284.05 K	4638000
284.36 K	4635000
284.67 K	4627000
284.98 K	4628000
285.29 K	4633000
285.6 K	4630000
285.91 K	4623000
286.23 K	4610000
286.54 K	4617000
286.85 K	4623000
287.16 K	4612000
287.47 K	4611000
287.78 K	4609000
288.09 K	4606000
288.6 K	4566000
288.82 K	4558000
289.05 K	4578000
289.28 K	4580000
289.51 K	4581000
289.74 K	4539000
289.96 K	4559000
290.19 K	4609000
290.42 K	4604000
290.65 K	4587000
290.88 K	4581000
291.11 K	4554000
291.33 K	4556000
291.56 K	4590000
291.79 K	4592000
292.02 K	4589000
292.25 K	4578000
292.48 K	4643000
292.71 K	4602000
292.94 K	4606000
293.16 K	4623000
293.39 K	4660000
293.62 K	4615000
293.85 K	4629000
294.08 K	4700000
294.31 K	4655000
294.53 K	4669000
294.76 K	4707000
294.99 K	4644000
295.22 K	4708000
295.45 K	4694000
295.68 K	4733000
295.9 K	4759000
296.13 K	4861000
296.36 K	5146000

102.6 kPa, Liquid, x1 = 0.054
Details	heat capacity [J/K/m3]
296.59 K	5567000
296.82 K	5424000
297.05 K	5334000
297.28 K	5260000
297.5 K	5164000
297.73 K	5179000
297.96 K	5136000
298.19 K	5070000
298.42 K	5083000
298.65 K	5094000
298.88 K	5093000
299.1 K	5111000
299.33 K	5023000
299.56 K	5049000
299.79 K	5063000
300.02 K	5028000
300.25 K	5015000
300.48 K	5009000
300.7 K	4961000
300.93 K	4977000
301.16 K	4985000
301.39 K	4958000
301.62 K	4957000
301.85 K	4945000
302.07 K	4916000
302.3 K	4889000
302.53 K	4922000

Cc1cccc(C)n1 [2,6-dimethylpyridine] + O
Liquid mixture 1, x1 = 0.066
Details	heat capacity [J/K/m3]
270.67 K	3943000
271.17 K	3939000
271.67 K	3932000
272.17 K	3933000
272.67 K	3929000
273.17 K	3934000
273.67 K	3928000
274.17 K	3930000
274.67 K	3924000
275.17 K	3925000
275.67 K	3922000
276.17 K	3920000
276.67 K	3918000
277.17 K	3918000
277.67 K	3919000
278.17 K	3918000
278.67 K	3916000
279.17 K	3913000
279.67 K	3916000
280.17 K	3914000
280.67 K	3914000
281.18 K	3913000
281.68 K	3910000
282.18 K	3910000
282.68 K	3907000
283.18 K	3907000
283.68 K	3904000
284.18 K	3907000
284.68 K	3905000
285.18 K	3909000
285.68 K	3905000
286.18 K	3903000
286.68 K	3907000
287.18 K	3907000
287.68 K	3910000
288.18 K	3913000
288.68 K	3913000
289.18 K	3912000
289.68 K	3912000
290.18 K	3910000
290.68 K	3913000
291.18 K	3912000
291.68 K	3913000
292.18 K	3916000
292.68 K	3917000
293.18 K	3915000
293.68 K	3911000
294.18 K	3914000
294.68 K	3914000
295.18 K	3913000
295.68 K	3912000
296.18 K	3913000
296.68 K	3912000
297.18 K	3914000
297.69 K	3914000
298.19 K	3918000
298.69 K	3919000
299.19 K	3916000
299.78 K	3918000
299.99 K	3916000
300.2 K	3912000
300.41 K	3920000
300.62 K	3927000
300.84 K	3944000
301.05 K	3932000
301.26 K	3930000
301.47 K	3942000
301.69 K	3950000
301.9 K	3947000
302.11 K	3945000
302.32 K	3932000
302.54 K	3934000
302.75 K	3933000
302.96 K	3962000
303.17 K	3969000
303.38 K	3938000
303.6 K	3938000
303.81 K	3935000
304.02 K	3948000
304.23 K	3973000
304.44 K	3963000
304.66 K	3960000
304.87 K	3953000
305.08 K	3960000
305.29 K	3975000
305.51 K	3976000
305.72 K	3956000
305.93 K	4006000
306.14 K	4011000
306.36 K	4082000
306.57 K	4075000

102.6 kPa, Liquid, x1 = 0.066
Details	heat capacity [J/K/m3]
306.78 K	4520000
306.99 K	4372000
307.2 K	4347000
307.42 K	4321000
307.63 K	4254000
307.84 K	4227000
308.05 K	4182000
308.27 K	4223000
308.48 K	4199000
308.69 K	4189000
308.9 K	4170000
309.12 K	4188000
309.33 K	4206000
309.54 K	4165000
309.75 K	4175000
309.96 K	4206000
310.18 K	4189000
310.39 K	4172000
310.6 K	4170000
310.81 K	4154000
311.03 K	4103000
311.24 K	4121000
311.45 K	4142000
311.66 K	4101000
311.88 K	4141000
312.09 K	4083000
312.3 K	4117000
312.51 K	4078000
312.73 K	4100000
